In PubChem BioAssay AID977623 (Broad Institute, 2014):
Inconclusive results are not listed. The source made the active and inactive calls.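 How the source made its calls: active means red signal of normal-ribosome cells cut twice as much as green signal of humanized-ribosome cells, growth loss under 30%; inactive means the rest, inconclusive results apart.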

Legend:
[1] = test system: E. coli WT-RFP/H69-GFP mixed culture, fluorescence, 24 h; assay: growth inhibition of wild-type RFP E. coli, dose response, H69 mutant GFP, cherry-pick (AID 977623)
[2] = as above; details: E. coli WT-RFP/H69-GFP mixed culture, fluorescence, 24 h
[3] = E. coli WT-RFP/H69-GFP mixed culture, 24 h, measured here: total growth OD600
[4] = measured here: H69 humanized strain GFP growth

COc1ccc(NC(=O)c2ccc(-c3ccc([N+](=O)[O-])cc3)o2)cc1
AC50 [1]: > 100 µM (inactive) | AC50 [1, 3]: 5.6 µM | AC50 [1, 4]: > 100 µM

COc1ccc2[nH]c3c(=O)n(CCCCC(=O)NCCC(C)C)c(=S)[nH]c3c2c1
activity change, negative = inhibition ([2]; at 50 µM (top of the series)): 100 (inactive)

Cc1ccc(C)c(NC(=O)CSc2nc3nc(-c4cccs4)cc(C(F)(F)F)c3c(=O)[nH]2)c1
activity change, negative = inhibition ([2]; at 50 µM (top of the series)): 16.1 (inactive) | AC50 [1, 3]: 10.3 µM | AC50 [1, 4]: 12.8 µM

C[C@@H]1CCCCO[C@H](CN(C)C(=O)CCCN(C)C)[C@H](C)CN([C@@H](C)CO)C(=O)c2cc(NC(=O)Nc3cccc4ccccc34)ccc2O1
activity change, negative = inhibition ([2]; at 50 µM (top of the series)): 102 (inactive) | AC50 [1, 4]: > 100 µM

CCOC(=O)c1c(NC(=O)Cc2cccs2)sc(C)c1C
activity change, negative = inhibition ([2]; at 50 µM (top of the series)): 24.9 (inactive) | AC50 [1, 3]: 9.61 µM | AC50 [1, 4]: 47.4 µM

COc1cc2c(cc1[N+](=O)[O-])-c1ccc([N+](=O)[O-])cc1C2
activity change, negative = inhibition ([2]; at 26 µM (top of the series)): 77.3 (inactive) | AC50 [1, 3]: 2.76 µM | AC50 [1, 4]: > 100 µM

COc1ccc(Cn2c(-c3ccc(Cl)cc3)c[n+]3ccccc23)cc1
activity change, negative = inhibition ([2]; at 50 µM (top of the series)): 26.5 (inactive) | AC50 [1, 3]: 47.2 µM

O=C(O)c1cc([N+](=O)[O-])ccc1NCc1ccccc1
activity change, negative = inhibition ([2]; at 50 µM (top of the series)): 3.75 (inactive) | AC50 [1, 3]: 15.2 µM

Cc1noc(C)c1NC(=O)Nc1ccc2c(c1)C(=O)N([C@H](C)CO)C[C@@H](C)[C@@H](CN(C)C(=O)Nc1ccc3c(c1)OCO3)OCCCC[C@@H](C)O2
activity change, negative = inhibition ([2]; at 50 µM (top of the series)): 153 (inactive) | AC50 [1, 3]: > 100 µM
